ChEMBL document CHEMBL4229333, “Effects of rigidity on the selectivity of protein kinase inhibitors” (Eur J Med Chem, 2018)

Tests used:
[1] = biological target: Serine/threonine-protein kinase BRSK1 (Homo sapiens) (UniProt Q8TDC3); experiment: Inhibition of BRSK1 (unknown origin) at 1 uM by mobility shift microfluidics platform based assay relative to control
[2] = biological target: Dual specificity tyrosine-phosphorylation-regulated kinase 2 (Homo sapiens) (UniProt Q92630); experiment: Inhibition of DYRK2 (unknown origin) at 1 uM by mobility shift microfluidics platform based assay relative to control
[3] = biological target: Casein kinase I isoform alpha (Homo sapiens) (UniProt P48729); experiment: Inhibition of CK1-alpha1 (unknown origin) at 1 uM by mobility shift microfluidics platform based assay relative to control
[4] = biological target: Serine/threonine-protein kinase D1 (Homo sapiens) (UniProt Q15139); experiment: Inhibition of PRKD1 (unknown origin) at 1 uM by mobility shift microfluidics platform based assay relative to control
[5] = biological target: Tyrosine-protein kinase Fes/Fps (Homo sapiens) (UniProt P07332); experiment: Inhibition of FES (unknown origin) at 1 uM by mobility shift microfluidics platform based assay relative to control
[6] = biological target: Serine/threonine-protein kinase Chk2 (Homo sapiens) (UniProt O96017); experiment: Inhibition of CHEK2 (unknown origin) at 1 uM by mobility shift microfluidics platform based assay relative to control
[7] = biological target: Serine/threonine-protein kinase PAK 1 (Homo sapiens) (UniProt Q13153); experiment: Inhibition of PAK1 (unknown origin) at 1 uM by mobility shift microfluidics platform based assay relative to control
[8] = biological target: Mitogen-activated protein kinase kinase kinase kinase 4 (Homo sapiens) (UniProt O95819); experiment: Inhibition of MAP4K4 (unknown origin) at 1 uM by mobility shift microfluidics platform based assay relative to control
[9] = biological target: Ribosomal protein S6 kinase alpha-3 (Homo sapiens) (UniProt P51812); experiment: Inhibition of RSK2 (unknown origin) at 1 uM by mobility shift microfluidics platform based assay relative to control
[10] = biological target: Receptor tyrosine-protein kinase erbB-4 (Homo sapiens) (UniProt Q15303); experiment: Inhibition of ERB-B4 (unknown origin) at 1 uM by mobility shift microfluidics platform based assay relative to control
[11] = biological target: Fibroblast growth factor receptor 3 (Homo sapiens) (UniProt P22607); experiment: Inhibition of FGFR3 (unknown origin) at 1 uM by mobility shift microfluidics platform based assay relative to control
[12] = biological target: Protein kinase C beta type (Homo sapiens) (UniProt P05771); experiment: Inhibition of PKC-beta2 (unknown origin) at 1 uM by mobility shift microfluidics platform based assay relative to control
[13] = biological target: Aurora kinase C (Homo sapiens) (UniProt Q9UQB9); experiment: Inhibition of AURORA-C (unknown origin) at 1 uM by mobility shift microfluidics platform based assay relative to control
[14] = biological target: Tyrosine-protein kinase Yes (Homo sapiens) (UniProt P07947); experiment: Inhibition of YES (unknown origin) at 1 uM by mobility shift microfluidics platform based assay relative to control
[15] = biological target: Tyrosine-protein kinase Srms (Homo sapiens) (UniProt Q9H3Y6); experiment: Inhibition of SRMS (unknown origin) at 1 uM by mobility shift microfluidics platform based assay relative to control
[16] = biological target: Serine/threonine-protein kinase PAK 5 (Homo sapiens) (UniProt Q9P286); experiment: Inhibition of PAK5 (unknown origin) at 1 uM by mobility shift microfluidics platform based assay relative to control
[17] = biological target: Serine/threonine-protein kinase 10 (Homo sapiens) (UniProt O94804); experiment: Inhibition of LOK (unknown origin) at 1 uM by mobility shift microfluidics platform based assay relative to control
[18] = biological target: Mitogen-activated protein kinase kinase kinase kinase 5 (Homo sapiens) (UniProt Q9Y4K4); experiment: Inhibition of MAP4K5 (unknown origin) at 1 uM by mobility shift microfluidics platform based assay relative to control
[19] = biological target: Death-associated protein kinase 3 (Homo sapiens) (UniProt O43293); experiment: Inhibition of DAPK3 (unknown origin) at 1 uM by mobility shift microfluidics platform based assay relative to control
[20] = biological target: Tyrosine-protein kinase CSK (Homo sapiens) (UniProt P41240); experiment: Inhibition of CSK (unknown origin) at 1 uM by mobility shift microfluidics platform based assay relative to control
[21] = biological target: Calcium/calmodulin-dependent protein kinase type 1 (Homo sapiens) (UniProt Q14012); experiment: Inhibition of CAMK1A (unknown origin) at 1 uM by mobility shift microfluidics platform based assay relative to control
Homo sapiens [22] = organism: Homo sapiens; experiment: Inhibition of CDK6/Cyclin D (unknown origin) at 1 uM by mobility shift microfluidics platform based assay relative to control
[23] = biological target: Casein kinase I isoform epsilon (Homo sapiens) (UniProt P49674); experiment: Inhibition of CK1-epsilon (unknown origin) at 1 uM by mobility shift microfluidics platform based assay relative to control
Homo sapiens [24] = organism: Homo sapiens; experiment: Inhibition of CDK/cyclin D3 (unknown origin) at 1 uM by mobility shift microfluidics platform based assay relative to control
[25] = biological target: Tyrosine-protein kinase ITK/TSK (Homo sapiens) (UniProt Q08881); experiment: Inhibition of ITK (unknown origin) at 1 uM by mobility shift microfluidics platform based assay relative to control
[26] = biological target: Serine/threonine-protein kinase 25 (Homo sapiens) (UniProt O00506); experiment: Inhibition of STK25 (unknown origin) at 1 uM by mobility shift microfluidics platform based assay relative to control
[27] = biological target: Tyrosine-protein kinase Lyn (Homo sapiens) (UniProt P07948); experiment: Inhibition of LYNA (unknown origin) at 1 uM by mobility shift microfluidics platform based assay relative to control
[28] = biological target: Dual specificity tyrosine-phosphorylation-regulated kinase 1B (Homo sapiens) (UniProt Q9Y463); experiment: Inhibition of DYRK1B (unknown origin) at 1 uM by mobility shift microfluidics platform based assay relative to control
[29] = biological target: Tyrosine-protein kinase ABL2 (Homo sapiens) (UniProt P42684); experiment: Inhibition of ARG (unknown origin) at 1 uM by mobility shift microfluidics platform based assay relative to control
[30] = biological target: Serine/threonine-protein kinase MARK1 (Homo sapiens) (UniProt Q9P0L2); experiment: Inhibition of MARK1 (unknown origin) at 1 uM by mobility shift microfluidics platform based assay relative to control
[31] = biological target: Ribosomal protein S6 kinase alpha-4 (Homo sapiens) (UniProt O75676); experiment: Inhibition of MSK2 (unknown origin) at 1 uM by mobility shift microfluidics platform based assay relative to control
[32] = biological target: Fibroblast growth factor receptor 1 (Homo sapiens) (UniProt P11362); experiment: Inhibition of FGFR1 (unknown origin) at 1 uM by mobility shift microfluidics platform based assay relative to control
[33] = biological target: Tyrosine-protein kinase Mer (Homo sapiens) (UniProt Q12866); experiment: Inhibition of MER (unknown origin) at 1 uM by mobility shift microfluidics platform based assay relative to control
[34] = biological target: Serine/threonine-protein kinase MRCK alpha (Homo sapiens) (UniProt Q5VT25); experiment: Inhibition of MRCK-alpha (unknown origin) at 1 uM by mobility shift microfluidics platform based assay relative to control

Calcium/calmodulin-dependent protein kinase type 1 (Homo sapiens), sequence (Q14012 whole entry, looked up): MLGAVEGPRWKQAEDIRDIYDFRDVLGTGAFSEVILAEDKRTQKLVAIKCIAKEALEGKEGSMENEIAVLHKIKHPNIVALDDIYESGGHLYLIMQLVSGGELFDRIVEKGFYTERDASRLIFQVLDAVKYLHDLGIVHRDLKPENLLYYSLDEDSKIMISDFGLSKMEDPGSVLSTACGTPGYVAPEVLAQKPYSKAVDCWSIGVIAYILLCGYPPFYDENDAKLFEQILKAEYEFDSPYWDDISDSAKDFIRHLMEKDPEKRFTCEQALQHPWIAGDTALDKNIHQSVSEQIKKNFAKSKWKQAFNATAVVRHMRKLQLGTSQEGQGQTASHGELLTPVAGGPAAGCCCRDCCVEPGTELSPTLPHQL
Tyrosine-protein kinase CSK (Homo sapiens), sequence (P41240 2-450 limits assumed): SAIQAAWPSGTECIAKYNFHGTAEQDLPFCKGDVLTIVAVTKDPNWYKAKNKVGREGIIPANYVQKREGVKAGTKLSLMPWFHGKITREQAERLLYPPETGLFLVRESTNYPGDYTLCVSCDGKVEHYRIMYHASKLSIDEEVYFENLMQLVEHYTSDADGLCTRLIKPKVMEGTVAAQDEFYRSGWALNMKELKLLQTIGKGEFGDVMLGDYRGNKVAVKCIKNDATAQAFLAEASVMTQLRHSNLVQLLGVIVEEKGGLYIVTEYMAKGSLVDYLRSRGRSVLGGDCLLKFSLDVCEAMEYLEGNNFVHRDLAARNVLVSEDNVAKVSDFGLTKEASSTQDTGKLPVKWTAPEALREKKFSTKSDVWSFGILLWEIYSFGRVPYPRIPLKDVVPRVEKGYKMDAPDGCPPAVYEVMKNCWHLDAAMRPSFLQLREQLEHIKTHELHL
Death-associated protein kinase 3 (Homo sapiens), sequence (O43293 whole entry, looked up): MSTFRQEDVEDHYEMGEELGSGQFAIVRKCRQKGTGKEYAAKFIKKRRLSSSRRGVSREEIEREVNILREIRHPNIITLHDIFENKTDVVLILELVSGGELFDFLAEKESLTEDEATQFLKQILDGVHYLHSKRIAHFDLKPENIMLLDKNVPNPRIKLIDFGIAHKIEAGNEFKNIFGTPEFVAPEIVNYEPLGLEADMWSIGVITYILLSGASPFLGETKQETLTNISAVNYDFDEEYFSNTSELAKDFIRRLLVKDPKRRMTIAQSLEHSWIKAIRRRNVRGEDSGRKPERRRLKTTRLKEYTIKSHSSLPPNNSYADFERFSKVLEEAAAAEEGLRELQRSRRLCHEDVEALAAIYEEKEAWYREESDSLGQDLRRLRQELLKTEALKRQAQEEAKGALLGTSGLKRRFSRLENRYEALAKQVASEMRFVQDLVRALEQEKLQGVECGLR
Ribosomal protein S6 kinase alpha-3 (Homo sapiens), sequence (P51812 whole entry): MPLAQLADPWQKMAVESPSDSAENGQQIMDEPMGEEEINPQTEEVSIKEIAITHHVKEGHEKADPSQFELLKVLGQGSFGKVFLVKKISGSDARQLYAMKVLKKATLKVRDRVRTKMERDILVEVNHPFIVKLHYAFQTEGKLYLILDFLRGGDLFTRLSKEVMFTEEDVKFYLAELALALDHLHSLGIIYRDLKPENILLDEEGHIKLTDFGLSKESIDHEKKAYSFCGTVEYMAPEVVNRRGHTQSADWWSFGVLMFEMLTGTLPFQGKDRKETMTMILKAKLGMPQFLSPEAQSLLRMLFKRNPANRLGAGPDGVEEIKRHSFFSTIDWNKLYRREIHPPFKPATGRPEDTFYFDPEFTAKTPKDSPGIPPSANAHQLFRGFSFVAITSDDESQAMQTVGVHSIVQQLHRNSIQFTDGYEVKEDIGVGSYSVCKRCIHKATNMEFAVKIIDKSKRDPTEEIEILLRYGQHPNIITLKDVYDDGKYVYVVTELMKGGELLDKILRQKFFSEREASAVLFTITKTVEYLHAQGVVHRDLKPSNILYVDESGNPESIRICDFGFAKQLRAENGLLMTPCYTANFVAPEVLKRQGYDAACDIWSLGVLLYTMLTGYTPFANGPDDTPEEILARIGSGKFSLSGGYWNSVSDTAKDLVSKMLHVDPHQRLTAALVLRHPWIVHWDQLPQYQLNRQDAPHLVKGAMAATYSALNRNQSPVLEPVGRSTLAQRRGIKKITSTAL
Serine/threonine-protein kinase PAK 1 (Homo sapiens), sequence (Q13153 whole entry): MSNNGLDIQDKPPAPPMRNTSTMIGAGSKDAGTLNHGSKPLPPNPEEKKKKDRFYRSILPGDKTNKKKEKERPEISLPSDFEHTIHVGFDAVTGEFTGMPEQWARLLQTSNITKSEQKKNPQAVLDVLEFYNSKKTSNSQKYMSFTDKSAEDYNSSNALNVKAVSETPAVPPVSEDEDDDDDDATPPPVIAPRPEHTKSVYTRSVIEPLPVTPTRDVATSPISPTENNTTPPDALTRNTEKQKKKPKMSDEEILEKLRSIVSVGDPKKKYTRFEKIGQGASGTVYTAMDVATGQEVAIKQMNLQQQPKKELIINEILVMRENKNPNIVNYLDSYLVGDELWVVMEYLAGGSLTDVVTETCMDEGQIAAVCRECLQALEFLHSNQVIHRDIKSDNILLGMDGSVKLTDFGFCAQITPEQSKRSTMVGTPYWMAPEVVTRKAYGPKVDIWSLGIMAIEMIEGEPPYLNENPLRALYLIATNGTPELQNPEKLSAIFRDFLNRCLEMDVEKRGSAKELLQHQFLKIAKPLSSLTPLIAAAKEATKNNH
Serine/threonine-protein kinase D1 (Homo sapiens), sequence (Q15139 whole entry): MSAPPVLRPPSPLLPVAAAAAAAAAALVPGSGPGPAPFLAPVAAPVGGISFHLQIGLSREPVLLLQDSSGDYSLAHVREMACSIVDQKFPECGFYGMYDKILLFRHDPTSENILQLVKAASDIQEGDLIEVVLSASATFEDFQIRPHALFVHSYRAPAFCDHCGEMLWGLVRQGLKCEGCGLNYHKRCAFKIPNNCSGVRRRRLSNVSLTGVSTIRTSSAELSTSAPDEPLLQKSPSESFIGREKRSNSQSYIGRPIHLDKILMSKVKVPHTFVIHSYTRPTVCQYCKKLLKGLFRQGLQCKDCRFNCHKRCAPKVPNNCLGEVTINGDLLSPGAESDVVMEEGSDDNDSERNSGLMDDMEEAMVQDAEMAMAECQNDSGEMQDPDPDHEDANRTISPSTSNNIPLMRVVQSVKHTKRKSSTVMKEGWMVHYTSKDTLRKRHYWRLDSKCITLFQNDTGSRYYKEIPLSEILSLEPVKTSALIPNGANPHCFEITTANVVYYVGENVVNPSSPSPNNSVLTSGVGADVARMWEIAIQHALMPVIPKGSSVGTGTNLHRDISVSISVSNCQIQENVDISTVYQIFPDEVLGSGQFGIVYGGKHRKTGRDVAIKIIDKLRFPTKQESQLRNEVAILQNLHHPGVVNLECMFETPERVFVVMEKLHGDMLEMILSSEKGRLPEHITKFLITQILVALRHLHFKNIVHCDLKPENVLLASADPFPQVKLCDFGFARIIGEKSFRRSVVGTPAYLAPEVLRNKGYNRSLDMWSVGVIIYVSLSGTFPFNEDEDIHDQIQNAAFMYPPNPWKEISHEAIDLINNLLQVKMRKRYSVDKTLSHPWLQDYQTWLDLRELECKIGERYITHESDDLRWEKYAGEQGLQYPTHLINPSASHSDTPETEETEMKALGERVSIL
Serine/threonine-protein kinase 10 (Homo sapiens), sequence (O94804 whole entry, looked up): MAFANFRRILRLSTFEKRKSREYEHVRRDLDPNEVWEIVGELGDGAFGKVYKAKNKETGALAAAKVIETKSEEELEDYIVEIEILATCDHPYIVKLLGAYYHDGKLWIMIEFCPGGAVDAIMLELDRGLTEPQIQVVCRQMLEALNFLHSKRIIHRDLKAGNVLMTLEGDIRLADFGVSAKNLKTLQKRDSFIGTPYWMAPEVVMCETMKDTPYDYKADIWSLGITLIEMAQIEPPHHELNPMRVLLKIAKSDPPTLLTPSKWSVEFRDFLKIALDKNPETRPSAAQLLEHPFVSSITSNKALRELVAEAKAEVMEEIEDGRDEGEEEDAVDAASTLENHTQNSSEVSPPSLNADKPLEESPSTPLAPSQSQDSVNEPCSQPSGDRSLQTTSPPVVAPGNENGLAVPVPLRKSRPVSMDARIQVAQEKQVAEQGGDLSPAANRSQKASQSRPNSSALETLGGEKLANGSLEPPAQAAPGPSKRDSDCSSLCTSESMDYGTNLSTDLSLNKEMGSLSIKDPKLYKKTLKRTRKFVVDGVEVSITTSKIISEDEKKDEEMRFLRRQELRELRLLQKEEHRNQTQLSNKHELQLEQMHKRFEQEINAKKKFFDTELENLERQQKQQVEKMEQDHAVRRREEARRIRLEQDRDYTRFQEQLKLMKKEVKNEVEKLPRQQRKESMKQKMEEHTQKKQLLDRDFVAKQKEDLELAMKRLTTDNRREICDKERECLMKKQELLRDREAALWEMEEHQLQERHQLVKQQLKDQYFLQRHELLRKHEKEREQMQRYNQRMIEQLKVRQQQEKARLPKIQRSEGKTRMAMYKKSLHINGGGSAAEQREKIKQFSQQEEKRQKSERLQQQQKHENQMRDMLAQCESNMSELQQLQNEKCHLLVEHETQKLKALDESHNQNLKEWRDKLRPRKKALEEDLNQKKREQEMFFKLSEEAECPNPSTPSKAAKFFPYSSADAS
Tyrosine-protein kinase Yes (Homo sapiens), sequence (P07947 2-543 limits assumed): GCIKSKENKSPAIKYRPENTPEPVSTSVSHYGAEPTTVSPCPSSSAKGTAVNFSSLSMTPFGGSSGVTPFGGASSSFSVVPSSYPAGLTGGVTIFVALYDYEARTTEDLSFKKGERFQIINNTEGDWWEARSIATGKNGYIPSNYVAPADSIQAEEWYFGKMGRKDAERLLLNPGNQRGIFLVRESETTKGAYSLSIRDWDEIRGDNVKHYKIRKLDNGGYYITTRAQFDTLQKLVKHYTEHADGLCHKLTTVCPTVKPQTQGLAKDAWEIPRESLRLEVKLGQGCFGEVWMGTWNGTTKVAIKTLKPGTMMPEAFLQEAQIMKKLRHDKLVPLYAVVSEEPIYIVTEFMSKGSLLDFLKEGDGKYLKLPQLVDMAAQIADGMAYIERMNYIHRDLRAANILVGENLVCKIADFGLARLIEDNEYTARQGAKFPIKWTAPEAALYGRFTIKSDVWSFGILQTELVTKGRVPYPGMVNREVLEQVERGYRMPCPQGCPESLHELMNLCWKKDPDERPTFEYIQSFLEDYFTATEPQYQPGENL

| SMILES | inhibition [1] [%] | inhibition [2] [%] | inhibition [3] [%] | inhibition [4] [%] | inhibition [5] [%] | inhibition [6] [%] | inhibition [7] [%] | inhibition [8] [%] | inhibition [9] [%] | inhibition [10] [%] | inhibition [11] [%] | inhibition [12] [%] | inhibition [13] [%] | inhibition [14] [%] | inhibition [15] [%] | inhibition [16] [%] | inhibition [17] [%] | inhibition [18] [%] | inhibition [19] [%] | inhibition [20] [%] | other results |
| --- | --- | --- | --- | --- | --- | --- | --- | --- | --- | --- | --- | --- | --- | --- | --- | --- | --- | --- | --- | --- | --- |
| CC(C)n1nc(C#Cc2cccc(NC(=O)c3cccc(C(F)(F)F)c3)c2)c2c(N)ncnc21 | -10 | 11 | 10 | 4 | 21 | 3 | 0 | 69 | 0 | 88 | 52 | 2 | 33 | 101 | 55 | 0 | 97 | 66 | 11 | 93 | inhibition [21]: 2%; inhibition (Homo sapiens [22]): -1%; inhibition [23]: 27%; inhibition (Homo sapiens [24]): 8%; inhibition [25]: 23%; inhibition [26]: -5%; inhibition [27]: 99%; inhibition [28]: 0%; inhibition [29]: 99%; inhibition [30]: 1%; inhibition [31]: 3%; inhibition [32]: 98%; inhibition [33]: 6%; inhibition [34]: 0% |
| CC(C)n1nc(C#Cc2cccc3cc(-c4cccc(C(F)(F)F)c4)ncc23)c2c(N)ncnc21 | 0 | -3 | 2 | 3 | 0 | -4 | -1 | 3 | 0 | 4 | 34 | 5 | -2 | 88 | 20 | -4 | 59 | 33 | 11 | 31 | inhibition [21]: 1%; inhibition (Homo sapiens [22]): 0%; inhibition [23]: 8%; inhibition (Homo sapiens [24]): 1%; inhibition [25]: 10%; inhibition [26]: 3%; inhibition [27]: 95%; inhibition [28]: 1%; inhibition [29]: 94%; inhibition [30]: -2%; inhibition [31]: 5%; inhibition [32]: 91%; inhibition [33]: 0%; inhibition [34]: 2% |
